The test addresses T1, human OX2 receptor (Homo sapiens, UniProt O43614).
T1 construct: expressed in transfected cells
T1 sequence (O43614 1-444): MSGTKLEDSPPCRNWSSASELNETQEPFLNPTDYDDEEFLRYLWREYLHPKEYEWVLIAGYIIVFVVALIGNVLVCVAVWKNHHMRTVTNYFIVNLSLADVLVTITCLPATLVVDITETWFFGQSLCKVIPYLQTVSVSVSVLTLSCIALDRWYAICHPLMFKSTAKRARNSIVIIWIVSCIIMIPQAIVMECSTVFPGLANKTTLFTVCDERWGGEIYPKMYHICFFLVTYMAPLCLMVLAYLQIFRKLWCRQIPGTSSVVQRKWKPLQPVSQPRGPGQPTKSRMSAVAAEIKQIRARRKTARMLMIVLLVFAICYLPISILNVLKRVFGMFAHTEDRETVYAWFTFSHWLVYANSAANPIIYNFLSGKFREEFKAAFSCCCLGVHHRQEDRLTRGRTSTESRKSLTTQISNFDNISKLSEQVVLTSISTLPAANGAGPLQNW
As to the kind of experiment: Measurement of orexin type 2 receptor agonist activity (calcium fluorescence, Fluo-4, FDSS). The conditions noted are these: 3 uM test compound; CHO cells expressing human OX2 receptor; DMSO = 0%, 10 nM orexin A (human) = 100%. It is filed as cell-based. The protocol:
In order to obtain cell clones that stably express human orexin type 2 receptor, human orexin type 2 (residues 1-444, NCBI Reference Sequence: AK314279) was constructed in a pcDNA3.1 (+) vector (Invitrogen) to express in mammalian cells. This plasmid DNA was transfected into CHO-K1 cells by electroporation, and stable clones were obtained by limiting dilution using resistance to G418 as a selection marker.
CHO cells in which human OX2 receptor was forcibly expressed were seeded at 10,000 cells/well into a 384-well black transparent bottom plate (BD falcon), and were incubated at 37° C., 5% CO2 for 1 day after incubation at room temperature for 30 minutes. After removing the cell plate medium, assay buffer containing calcium indicator A (HBSS (Thermo Fisher Scientific), 20 mM HEPES (Thermo Fisher Scientific), 0.1% BSA (Sigma-Aldrich), 2.5 μg/mL Fluo-4 AM (Dojin Kagaku), 0.08% Pluronic F127 (Dojin Kagaku), 1.25 mM probenecid (Dojin Kagaku)) was added at 30 μL/well. After incubation in a 5% CO2 incubator at 37° C. for 30 minutes, it was incubated at room temperature for another 30 minutes. Add 10 μL/well of the test compound diluted with assay buffer B (HBSS, 20 mM HEPES, 0.1% BSA), and use FDSS μCELL (Hamamatsu Photonics) to measure the fluorescence value every 1 second for 1 minute, and then every 2 seconds for 1 minute. It was measured for 1 minute and 40 seconds. The amount of fluorescence value when DMSO is added instead of the test compound is defined as 0%, and the amount of fluorescence value when orexin A (human) (Peptide Institute) with a final concentration of 10 nM is added is defined as 100%. The activity (%) of the test compound was calculated.
As to `CCS(=O)(=O)NC1Cn2c(cn(-c3noc4cccc(-c5c(F)cccc5F)c34)c2=O)C1(F)F` (single isomer, unassigned) [Example 5, N-{(6R*)-2-[4-(2,6-difluorophenyl)-1,2-benzoxazol-3-yl]-7,7-difluoro-3-oxo-2,5,6,7-tetrahydro-3H-pyrrolo[1,2-c]imidazol-6-yl}ethanesulfonamide], the “OX2R agonist activity (3 uM, %)” value stood at 106%. To `CCS(=O)(=O)N[C@@H]1CN2C(=O)N(c3noc4cc(F)cc(-c5c(F)cccc5F)c34)CC[C@@H]2C1(F)F` [Example 263, N-{(4aR,6R)-2-[4-(2,6-difluorophenyl)-6-fluoro-1,2-benzoxazol-3-yl]-5,5-difluoro-1-oxooctahydropyrrolo[1,2-c]pyrimidin-6-yl}ethanesulfonamide] belongs 114%; to `CS(=O)(=O)N[C@@H]1CN2C(=O)N(c3noc4cccc(-c5ccc(F)cc5)c34)CC[C@@H]2C1(F)F` [Example 277, N-{(4aR,6R)-5,5-difluoro-2-[4-(4-fluorophenyl)-1,2-benzoxazol-3-yl]-1-oxooctahydropyrrolo[1,2-c]pyrimidin-6-yl}methanesulfonamide], 106%. Regarding `CCS(=O)(=O)N[C@@H]1Cn2c(cn(-c3noc4cc(C(F)(F)F)cc(-c5c(F)cc(F)cc5F)c34)c2=O)C1(F)F` [Example 157, N-{(6R)-7,7-difluoro-3-oxo-2-[6-(trifluoromethyl)-4-(2,4,6-trifluorophenyl)-1,2-benzoxazol-3-yl]-2,5,6,7-tetrahydro-3H-pyrrolo[1,2-c]imidazol-6-yl}ethanesulfonamide], the “OX2R agonist activity (3 uM, %)” value turned out to be 96%. As to `O=C1N(c2noc3cccc(-c4c(F)cccc4F)c23)C[C@@H]2C[C@H](NS(=O)(=O)CF)CN12` [Example 29, N-{(6S,7aS)-2-[4-(2,6-difluorophenyl)-1,2-benzoxazol-3-yl]-3-oxohexahydro-1H-pyrrolo[1,2-c]imidazol-6-yl}-1-fluoromethanesulfonamide], the “OX2R agonist activity (3 uM, %)” value is reported as 101%. With `CCS(=O)(=O)N[C@@H]1CN2C(=O)N(c3noc4cc(F)cc(-c5c(F)cccc5F)c34)C[C@@H]2C1(F)F` [Example 69, N-{(6R,7aR)-2-[4-(2,6-difluorophenyl)-6-fluoro-1,2-benzoxazol-3-yl]-7,7-difluoro-3-oxohexahydro-1H-pyrrolo[1,2-c]imidazol-6-yl}ethanesulfonamide], the “OX2R agonist activity (3 uM, %)” value stood at 96%. On to `CN(C)S(=O)(=O)N[C@H]1C[C@H]2CN(c3noc4cccc(-c5c(F)cccc5F)c34)C(=O)N2C1` [Example 28, N′-{(6S,7aS)-2-[4-(2,6-difluorophenyl)-1,2-benzoxazol-3-yl]-3-oxohexahydro-1H-pyrrolo[1,2-c]imidazol-6-yl}-N,N-dimethylsulfuric diamide], for which the “OX2R agonist activity (3 uM, %)” value is recorded as 106%. Take `CCS(=O)(=O)N[C@@H]1Cn2c(cn(-c3noc4cc(COC)cc(-c5c(F)cccc5F)c34)c2=O)C1(F)F` [Example 167, N-{(6R)-2-[4-(2,6-difluorophenyl)-6-(methoxymethyl)-1,2-benzoxazol-3-yl]-7,7-difluoro-3-oxo-2,5,6,7-tetrahydro-3H-pyrrolo[1,2-c]imidazol-6-yl}ethanesulfonamide]: the “OX2R agonist activity (3 uM, %)” value is recorded as 97%. As for `Cc1cc2onc(N3C[C@H]4N(C[C@@H](NS(C)(=O)=O)C4(F)F)C3=O)c2c(-c2c(F)cccc2F)c1F` [Example 186, N-{(6R,7aR)-2-[4-(2,6-difluorophenyl)-5-fluoro-6-methyl-1,2-benzoxazol-3-yl]-7,7-difluoro-3-oxohexahydro-1H-pyrrolo[1,2-c]imidazol-6-yl}methanesulfonamide], the “OX2R agonist activity (3 uM, %)” value came to 101%.

For the compound `Cc1cc2onc(-n3cc4n(c3=O)C[C@@H](NS(C)(=O)=O)C4(F)F)c2c(-c2c(F)cc(F)cc2F)n1` [Example 229, N-{(6R)-7,7-difluoro-2-[6-methyl-4-(2,4,6-trifluorophenyl)[1,2]oxazolo[4,5-c]pyridin-3-yl]-3-oxo-2,5,6,7-tetrahydro-3H-pyrrolo[1,2-c]imidazol-6-yl}methanesulfonamide], the “OX2R agonist activity (3 uM, %)” value came to 113%. To `Cc1cc(-c2c(F)cccc2F)c2c(N3C[C@H]4N(C[C@@H](NS(C)(=O)=O)C4(F)F)C3=O)noc2c1` [Example 126, N-{(6R,7aR)-2-[4-(2,6-Difluorophenyl)-6-methyl-1,2-benzoxazol-3-yl]-7,7-difluoro-3-oxohexahydro-1H-pyrrolo[1,2-c]imidazol-6-yl}methanesulfonamide] belongs 97%; to `CCOc1cc(-c2c(F)cccc2F)c2c(N3CC[C@H]4N(C[C@@H](NS(=O)(=O)CC)C4(F)F)C3=O)noc2c1` [Example 299, N-{(4aR,6R)-2-[4-(2,6-difluorophenyl)-6-ethoxy-1,2-benzoxazol-3-yl]-5,5-difluoro-1-oxooctahydropyrrolo[1,2-c]pyrimidin-6-yl}ethanesulfonamide], 104%; to `CS(=O)(=O)N[C@@H]1Cn2c(cn(-c3noc4cc(F)c(F)c(-c5c(F)cc(F)cc5F)c34)c2=O)C1(F)F` [Example 135, N-{(6R)-2-[5,6-difluoro-4-(2,4,6-trifluorophenyl)-1,2-benzoxazol-3-yl]-7,7-difluoro-3-oxo-2,5,6,7-tetrahydro-3H-pyrrolo[1,2-c]imidazol-6-yl}methanesulfonamide], 100%. Turning to `CCS(=O)(=O)N[C@H]1Cc2cn(-c3nsc4nc(C)cc(-c5c(F)cccc5F)c34)c(=O)n2C1` [Example 152, N-{(6S)-2-[4-(2,6-difluorophenyl)-6-methyl[1,2]thiazolo[5,4-b]pyridin-3-yl]-3-oxo-2,5,6,7-tetrahydro-3H-pyrrolo[1,2-c]imidazol-6-yl}ethanesulfonamide], the “OX2R agonist activity (3 uM, %)” value amounted to 92%. For `CCS(=O)(=O)N[C@H]1C[C@H]2CN(c3noc4ccc(F)c(-c5c(F)cccc5F)c34)C(=O)N2C1` [Example 66, N-{(6S,7aS)-2-[4-(2,6-difluorophenyl)-5-fluoro-1,2-benzoxazol-3-yl]-3-oxohexahydro-1H-pyrrolo[1,2-c]imidazol-6-yl}ethanesulfonamide], the “OX2R agonist activity (3 uM, %)” value is listed as 97%. In the case of `CCS(=O)(=O)N[C@@H]1CN2C(=O)N(c3noc4cccc(-c5c(F)cccc5F)c34)C[C@@H]2[C@@H]1F` (relative stereo) [Example 4, rel-N-{(6R,7S,7aR)-2-[4-(2,6-difluorophenyl)-1,2-benzoxazol-3-yl]-7-fluoro-3-oxohexahydro-1H-pyrrolo[1,2-c]imidazol-6-yl}ethanesulfonamide], the “OX2R agonist activity (3 uM, %)” value is 105%. As for `CCS(=O)(=O)N[C@@H]1Cn2c(cn(-c3noc4cccc(-c5c(F)cccc5F)c34)c2=O)[C@@H]1F` (relative stereo) [Example 129, rel-N-{(6R, 7R)-2-[4-(2,6-difluorophenyl)-1,2-benzoxazol-3-yl]-7-fluoro-3-oxo-2,5,6,7-tetrahydro-3H-pyrrolo[1,2-c]imidazol-6-yl}ethanesulfonamide], the “OX2R agonist activity (3 uM, %)” value is reported as 103%. For `CCS(=O)(=O)N[C@@H]1CN2C(=O)N(c3noc4cccc(-c5c(F)cc(F)cc5F)c34)CC[C@@H]2C1(F)F` [Example 260, N-{(4aR,6R)-5,5-difluoro-1-oxo-2-[4-(2,4,6-trifluorophenyl)-1,2-benzoxazol-3-yl]octahydropyrrolo[1,2-c]pyrimidin-6-yl}ethanesulfonamide], the “OX2R agonist activity (3 uM, %)” value turned out to be 108%. `CCS(=O)(=O)N[C@@H]1CN2C(=O)N(c3noc4cc(C)c(F)c(-c5c(F)cc(F)cc5F)c34)C[C@@H]2C1(F)F` [Example 162, N-{(6R,7aR)-7,7-difluoro-2-[5-fluoro-6-methyl-4-(2,4,6-trifluorophenyl)-1,2-benzoxazol-3-yl]-3-oxohexahydro-1H-pyrrolo[1,2-c]imidazol-6-yl}ethanesulfonamide]: the “OX2R agonist activity (3 uM, %)” value came out at 102%.

Consider `CCS(=O)(=O)N[C@@H]1Cn2c(cn(-c3noc4cccc(-c5c(F)cc(F)cc5F)c34)c2=O)C1(F)F` [Example 91, N-{(6R)-7,7-difluoro-3-oxo-2-[4-(2,4,6-trifluorophenyl)-1,2-benzoxazol-3-yl]-2,5,6,7-tetrahydro-3H-pyrrolo[1,2-c]imidazol-6-yl}ethanesulfonamide], for which the “OX2R agonist activity (3 uM, %)” value amounted to 103%.

(Values after US11987586B1 (TAKEDA PHARMACEUTICAL COMPANY LIMITED, priority 2022, dated 2024).)
